Where a SMILES comes first, the peptide text is derived from it. [ ]: non-standard residue; d: D form. The star is where a group is joined. Palmitoyl = CCCCCCCCCCCCCCCC(=O)*
How the values were obtained:
[1] = test system: MCF-7 breast cancer cells; assay: MTT cell toxicity assay in MCF-7 breast cancer cells; format: cell-based; settings: MCF-7 cells, MTT; for TGI: concentration of total growth inhibition (cytostatic); for growth inhibition / potency in MCF-7 cells (in words): comparison with related peptides
Method in brief: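 MCF-7 cells seeded in 1% FBS medium, grown 24 h, then exposed to compounds at 0.1, 0.5, 2.5 or 5.0 μM (final, 0.5% FBS) for 48 h. MTT absorbance at 544 nm; growth relative to time-zero and untreated controls gave GI50 (50% growth inhibition) and TGI (zero net growth).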

breast cancer cell lines = assay: Alternative potency assay (MTT, serum-free, IGF-1 added) in cancer cell lines, FIG. 1; format: cell-based; settings: breast cancer cell lines (MCF-7, T47D), IGF-1 10 ng/mL
Description: An alternative potency assay was used to test compounds in MCF-7 (breast cancer), T47D (breast cancer), Colo 205 (colon cancer), JM-1 (rat hepatoma), Sk MeI-2 (melanoma), PLC (human hepatoma), and HepG2 (human hepatoma) cells. Cells were suspended at a concentration of approximately 5000 cells per 100 μL of suspension in a 5% FBS RPMI medium. The cells were seeded into 96-count wells and incubated over night. After one day's incubation, the 5% FBS medium was aspirated and replaced with 100 μL of no serum RPMI medium containing 1 mg Bovine Serum Albumin (BSA) per 1 mL RPMI. Various concentrations of the test compounds were prepared by dilution in no-serum medium containing 1 mg BSA/mL. […] Absorbance of the wells at 544 nm was determined by a FLUOstar/POLARstar Galaxy (BMG Lab Technologies GmbH) microplate reader. The activity was calculated from the data using the formula: 100×[(T−T0)/(C−T0)] for T>T0 and 100×[(T−T0)/T0] for T<T0, wherein T0 corresponds to cell density at the time of drug addition, “T” is the optical density of the test well after a 48-h period of exposure to test drug, and “C” is the control optical density. […]

AKT kinase = assay: OMNIA fluorogenic AKT kinase activity assay in lysates of IGF-1-stimulated MCF-7 cells, FIG. 3; format: cell-based; settings: MCF-7 stimulated with IGF-1, inhibitor 0 to 0.5 μM to 2.5 μM
Description: AKT Kinase Assay: OMNIA™ fluorogenic AKT Kinase Activity Assay Kit (BioSource through Invitrogen) was used for the measurement of AKT activity in cell lysates. To prepare for the cell treatment, MCF-7 cells were seeded into four wells on a six-well plate in RPMI medium. The medium was supplemented with 10% Fetal Bovine Serum to aid the cell attachment. The cells were incubated for 24 hours, after which time the 10% serum medium was aspirated and replaced with 2 mL of no-serum medium. The cells were starved overnight to stop the signaling from the FBS. On the third day, the medium was replaced and different dilutions of peptide diluted in no-serum medium was added to the four wells. Well 1 & 2 had 0.0 μM of 18, well 3 0.5 and well 4 2.5 μM.
The cells were placed on ice briefly to aid in detaching and then scraped from the bottom of the wells and rinsed with cold PBS. The cells suspended in PBS were collected and centrifuged for 5 minutes at 1500 rpm at 4° C. and the medium aspirated. […]
Master mix AKT fluorogenic substrate was prepared according to the protocol provided by BioSource. […] The fluorescence was excited at 360 nm and read at 485 nm for a length of 60 minutes every thirty seconds on a FLUOstar/POLARstar Galaxy (BMG Lab Technologies GmbH) microplate reader. […]

[2] = target: Insulin-like growth factor 1 receptor (IGF1R) (UniProt P08069 31-1367, limits assumed); assay: cell-based or functional assay
Sequence of Insulin-like growth factor 1 receptor (IGF1R) (P08069 31-1367 limits assumed): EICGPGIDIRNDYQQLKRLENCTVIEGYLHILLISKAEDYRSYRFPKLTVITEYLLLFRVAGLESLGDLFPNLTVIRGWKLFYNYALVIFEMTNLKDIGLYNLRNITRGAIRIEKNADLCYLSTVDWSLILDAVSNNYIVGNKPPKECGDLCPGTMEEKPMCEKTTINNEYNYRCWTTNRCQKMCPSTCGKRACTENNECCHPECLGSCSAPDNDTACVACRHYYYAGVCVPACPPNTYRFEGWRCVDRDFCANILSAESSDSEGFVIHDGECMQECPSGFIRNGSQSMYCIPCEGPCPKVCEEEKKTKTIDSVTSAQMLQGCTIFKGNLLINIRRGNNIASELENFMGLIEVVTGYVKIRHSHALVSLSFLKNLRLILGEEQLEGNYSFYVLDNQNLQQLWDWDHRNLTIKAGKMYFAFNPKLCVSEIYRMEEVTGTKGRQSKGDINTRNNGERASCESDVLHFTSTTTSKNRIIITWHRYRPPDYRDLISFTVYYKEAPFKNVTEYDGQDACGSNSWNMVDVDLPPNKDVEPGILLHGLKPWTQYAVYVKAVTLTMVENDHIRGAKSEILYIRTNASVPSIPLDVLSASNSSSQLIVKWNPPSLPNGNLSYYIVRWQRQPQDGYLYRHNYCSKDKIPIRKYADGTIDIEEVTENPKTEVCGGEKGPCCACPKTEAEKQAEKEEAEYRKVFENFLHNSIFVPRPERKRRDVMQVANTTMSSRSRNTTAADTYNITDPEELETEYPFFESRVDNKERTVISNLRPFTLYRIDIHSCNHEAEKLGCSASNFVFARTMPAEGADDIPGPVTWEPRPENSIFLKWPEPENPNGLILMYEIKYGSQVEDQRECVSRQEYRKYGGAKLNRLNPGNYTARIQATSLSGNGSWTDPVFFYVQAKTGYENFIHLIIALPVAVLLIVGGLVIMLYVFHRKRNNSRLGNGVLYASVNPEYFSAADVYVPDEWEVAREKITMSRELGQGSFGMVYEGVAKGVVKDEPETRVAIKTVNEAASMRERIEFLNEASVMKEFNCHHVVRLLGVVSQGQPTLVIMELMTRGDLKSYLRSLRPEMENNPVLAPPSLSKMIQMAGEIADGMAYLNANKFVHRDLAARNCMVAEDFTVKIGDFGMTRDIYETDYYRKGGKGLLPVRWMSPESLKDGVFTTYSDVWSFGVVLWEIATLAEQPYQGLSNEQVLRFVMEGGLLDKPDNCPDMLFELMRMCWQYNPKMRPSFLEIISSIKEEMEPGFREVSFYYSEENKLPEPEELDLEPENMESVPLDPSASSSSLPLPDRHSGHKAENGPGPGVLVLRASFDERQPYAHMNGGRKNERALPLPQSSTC

[3] = final 0.5% FBS, two days with compound

Row | GI50 (µM), MTT assay, MCF-7 cells [2] [µM] | TGI (µM), MTT assay, MCF-7 cells [2] [µM] | Molecule | GI50 [1, 3] [nM] | TGI [1, 3] [nM] | growth inhibition / potency in MCF-7 cells (in words) [1] | cell-growth inhibitory properties (breast cancer cell lines) | AKT enzyme activity (AKT kinase)
1 | – | – | CCCCCCCCCCCCCCCC(=O)N[C@@H](Cc1c[nH]cn1)C(=O)N[C@@H](CCCNC(=N)N)C(=O)N[C@@H](CCCCN)C(=O)N[C@@H](CCCNC(=N)N)C(=O)N[C@@H](CC(N)=O)C(=O)N[C@@H](CC(N)=O)C(=O)N[C@@H](CO)C(=O)N[C@@H](CCCNC(=N)N)C(=O)N[C@@H](CC(C)C)C(=O)NCC(=O)N[C@@H](CC(N)=O)C(=O)NCC(=O)N[C@H](C(=O)N[C@@H](CC(C)C)C(=O)N[C@@H](Cc1ccc(O)cc1)C(N)=O)C(C)C [Peptide 9, Pal-HRKRNNSRLGNGVLY-NH2] (Palmitoyl-HRKRNNSRLGNGVLY-NH2) | 1650 ± 100 | >5000 | did not improve the degree of folding or the potency | significant cell-growth inhibitory properties | –
2 | – | – | CCCCCCCCCCCCCCCC(=O)NCCCC[C@@H](NC(=O)[C@@H](CCCNC(=N)N)NC(=O)[C@@H](CC(N)=O)NC(=O)[C@@H](CC(N)=O)NC(=O)[C@@H](CO)NC(=O)[C@@H](CCCNC(=N)N)NC(=O)[C@@H](CC(C)C)NC(=O)CNC(=O)[C@@H](CC(N)=O)NC(=O)CNC(=O)[C@H](NC(=O)[C@@H](CC(C)C)NC(=O)[C@@H](Cc1ccc(O)cc1)NC(C)=O)C(C)C)C(N)=O [Peptide 18, Ac-YLVGNGLRSNNRK-(ε-Pal)] (Ac-[dY][dL][dV]G[dN]G[dL][dR][dS][dN][dN][dR][dK](Palmitoyl)-NH2; C-terminus assumed) | – | 400 ± 20 | increased the potency | – | decreased to undetectable levels
3 | 1 | > 5 | Palmitoyl-HRKRNNSRLGNGVLYASVNPEYFSAA-NH2 (SMILES CCCCCCCCCCCCCCCC(=O)N[C@@H](Cc1c[nH]cn1)C(=O)N[C@@H](CCCNC(=N)N)C(=O)N[C@@H](CCCCN)C(=O)N[C@@H](CCCNC(=N)N)C(=O)N[C@@H](CC(N)=O)C(=O)N[C@@H](CC(N)=O)C(=O)N[C@@H](CO)C(=O)N[C@@H](CCCNC(=N)N)C(=O)N[C@@H](CC(C)C)C(=O)NCC(=O)N[C@@H](CC(N)=O)C(=O)NCC(=O)N[C@H](C(=O)N[C@@H](CC(C)C)C(=O)N[C@@H](Cc1ccc(O)cc1)C(=O)N[C@@H](C)C(=O)N[C@@H](CO)C(=O)N[C@H](C(=O)N[C@@H](CC(N)=O)C(=O)N1CCC[C@H]1C(=O)N[C@@H](CCC(=O)O)C(=O)N[C@@H](Cc1ccc(O)cc1)C(=O)N[C@@H](Cc1ccccc1)C(=O)N[C@@H](CO)C(=O)N[C@@H](C)C(=O)N[C@@H](C)C(N)=O)C(C)C)C(C)C) [peptide 4 (Pal-HRKRNNSRLGNGVLYASVNPEYFSAA-NH2)] | – | – | – | – | –
